Assay results as given in US11246882B2, “Pharmaceutical composition for inhibiting resistance against anticancer drugs of patient suffering from ovarian cancer comprising NAG-1 inhibitor as active ingredient” (PUSAN NATIONAL UNIVERSITY INDUSTRY-UNIVERSITY COOPERATION …, priority 2015, dated 2022).

How the values were obtained:
[1] = test system: ovarian cancer stem cells (R182); experiment: Cell viability by MTT assay: resistance of ovarian cancer stem cells against Taxol under NAG-1 regulation; format: cell-based, Human
Experimental: Human epithelial ovarian cancer stem cell line R182 cells were provided by Prof. Gil Mor (Yale University School of Medicine). A2780 cells were purchased from American Type Culture Collection (Manassas, Va.). Cells were maintained in RPMI 1640 medium (supplemented with 20% [v/v] heat-inactivated FBS, 50 U/ml penicillin, and […] streptomycin) in a 5% CO2 humidified incubator at 37° C. Cell numbers were counted by trypan blue (Sigma-Aldrich, St. Louis, Mo., USA) using a hemocytometer according to dye exclusion assay.
200 μl of the cultured cancer cells were seeded into a 96-well plate to have 5×10^3 cells/well, and cultured for 24 hours at a temperature of 37° C. in a wet incubator with carbon 5% and […] supplied thereto. Then, an empty vector (pSilencer 4.1-CMV-neo vector, Ambion, USA) and shRNA specific to NAG-1 were added to the ovarian cancer cells, cultured for 48 hours, and treated for 48 hours with an anticancer drug, Taxol, according to the concentrations. 50 μl of MTT solution (1 mg/ml) in PBS was added to each well, and cultured again for 6 hours. After the formation of formazan was confirmed, the MTT solution was completely removed. […] Afterwards, a micro plate reader (Molecular Devices, USA) was used to measure absorbance at 560 nm. Accordingly, the relative cell viability was calculated when cells that were not treated with an anticancer drug was considered as 100%. […]

[2] = test system: ovarian cancer cells; experiment: Treatment of ovarian cancer cells with the anticancer drug Taxol; format: cell-based; settings: ovarian cancer cells other than stem cells

CC(=O)O[C@H]1C(=O)[C@@]2(C)[C@H]([C@H](OC(=O)c3ccccc3)[C@]3(O)C[C@H](OC(=O)[C@H](O)[C@@H](NC(=O)c4ccccc4)c4ccccc4)C(C)=C1C3(C)C)[C@]1(OC(C)=O)CO[C@@H]1C[C@@H]2O [Taxol]
cell death of ovarian cancer stem cells on treatment with anticancer drug ([1]; ovarian cancer stem cells): ovarian cancer stem cells did not die
cell death of ovarian cancer cells on treatment with anticancer drug [2]: ovarian cancer cells die

shRNA specific to NAG-1: shRNA having SEQ ID NO: 1 (ACAUGCACGCGCAGAUCAA), inhibitor of expression of NAG-1 protein; expression vector
resistance against the anticancer drug (Taxol), amount of living cells by MTT assay ([1]; R182 cells, shRNA added, cultured 48 hours, then Taxol 48 hours, compared with empty vector (FIG. 5)): the resistance against the anticancer drug was reduced
